Assay: Phase 1 study: safety and tolerability
Format: in vivo
Procedure: The maximum tolerated dose (MTD) of DZD1516 was defined based on safety data and the Bayesian optimal interval (BOIN) design (Additional file 1). The definition of DLT is provided in Additional file 1.
The AE grading was assessed according to the NCI-Common Terminology Criteria for Adverse Events (CTCAE) (version 5.0) and was monitored until 28 days after the last dose.
Eligible patients received single oral dosing of DZD1516 on Cycle 0 Day 1 (C0D1), followed by a 7-day washout. Twice daily oral dosing (bid) of DZD1516 was commenced from C1D1 in a continuous 21-day cycle until disease progression, unacceptable toxicity, or withdrawal of consent. All doses were taken under fed conditions (within 30 minutes after a meal).
Planned dosing consisted of 25, 50, 100, 200, 300, and 400 mg. Each dose escalation cohort will comprise a minimum of three and a maximum of six evaluable patients (except only one patient in the starting dose cohort). The maximum tolerated dose of DZD1516 was defined according to safety data and the Bayesian optimal interval (BOIN) design. Dose escalation/de-escalation rule with target toxicity rate for the MTD is 0.30 with interval of (0.20, 0.33).
DLTs were any adverse event (AE) not clearly attributable to the patient’s disease, including ≥ grade 4 hematological toxicities present for ≥ 4 days, grade 3 thrombocytopenia with bleeding, or grade 4 thrombocytopenia lasting for > 5 days, ≥ grade 3 non-hematological toxicities that is dose-limiting in the judgment of the investigators. Any other toxicity that is greater than that at baseline, is clinically significant or unacceptable, and is judged to be a DLT by the SRC. Exceptions included alopecia of any grade and isolated grade 3 laboratory change without clinical sequelae or clinical significance.
Safety evaluations were conducted at screening, on Day 1, 8, and 15 of Cycle 1, on Day 1 of each subsequent treatment cycle, at the end-of-treatment visit, and clinically indicated. Safety assessments included clinical laboratory measurements (hematology, chemistry, coagulation, and urinalysis), electrocardiogram (ECG), Echocardiogram/MUGA scan, ECOG performance status, vital signs, and physical examinations.

COc1cc(O[C@H]2CCN(C)CC2(F)F)c2c(Nc3ccc(Oc4ccn5ncnc5c4)c(C)c3)ncnc2c1 [DZD1516]
Alanine aminotransferase increased, Any Grade (25 mg (N = 1)): 0 (0.0) n (%) | Alanine aminotransferase increased, ≥ Grade 3 (25 mg (N = 1)): 0 (0.0) n (%) | Anemia, Any Grade (25 mg (N = 1)): 0 (0.0) n (%) | Anemia, ≥ Grade 3 (25 mg (N = 1)): 0 (0.0) n (%) | Any TEAE: Grade 3 (25 mg (N = 1)): 0 (0.0) n (%) | Any TEAE: Leading to death (25 mg (N = 1)): 0 (0.0) n (%) | Any TEAE: Leading to dose reduction (25 mg (N = 1)): 0 (0.0) n (%) | Any TEAE: Leading to treatment discontinuation (25 mg (N = 1)): 0 (0.0) n (%) | Any TEAE: Leading to treatment interruption (25 mg (N = 1)): 0 (0.0) n (%) | Any TEAE: SAE (25 mg (N = 1)): 0 (0.0) n (%) | Aspartate aminotransferase increased, Any Grade (25 mg (N = 1)): 0 (0.0) n (%) | Aspartate aminotransferase increased, ≥ Grade 3 (25 mg (N = 1)): 0 (0.0) n (%) | Blood and lymphatic system disorders, Any Grade (25 mg (N = 1)): 0 (0.0) n (%) | Blood and lymphatic system disorders, ≥ Grade 3 (25 mg (N = 1)): 0 (0.0) n (%) | Blood bilirubin increased, Any Grade (25 mg (N = 1)): 1 (100.0) n (%) | Blood bilirubin increased, ≥ Grade 3 (25 mg (N = 1)): 0 (0.0) n (%) | Cardiac disorders, Any Grade (25 mg (N = 1)): 0 (0.0) n (%) | Cardiac disorders, ≥ Grade 3 (25 mg (N = 1)): 0 (0.0) n (%) | Constipation, Any Grade (25 mg (N = 1)): 0 (0.0) n (%) | Constipation, ≥ Grade 3 (25 mg (N = 1)): 0 (0.0) n (%) | Decreased appetite, Any Grade (25 mg (N = 1)): 0 (0.0) n (%) | Decreased appetite, ≥ Grade 3 (25 mg (N = 1)): 0 (0.0) n (%) | Dizziness, Any Grade (25 mg (N = 1)): 0 (0.0) n (%) | Dizziness, ≥ Grade 3 (25 mg (N = 1)): 0 (0.0) n (%) | Drug-related TEAE: Grade 3 (25 mg (N = 1)): 0 (0.0) n (%) | Drug-related TEAE: Leading to death (25 mg (N = 1)): 0 (0.0) n (%) | Drug-related TEAE: Leading to dose reduction (25 mg (N = 1)): 0 (0.0) n (%) | Drug-related TEAE: Leading to treatment discontinuation (25 mg (N = 1)): 0 (0.0) n (%) | Drug-related TEAE: Leading to treatment interruption (25 mg (N = 1)): 0 (0.0) n (%) | Drug-related TEAE: SAE (25 mg (N = 1)): 0 (0.0) n (%) | Fatigue, Any Grade (25 mg (N = 1)): 0 (0.0) n (%) | Fatigue, ≥ Grade 3 (25 mg (N = 1)): 0 (0.0) n (%) | Gastrointestinal disorders, Any Grade (25 mg (N = 1)): 0 (0.0) n (%) | Gastrointestinal disorders, ≥ Grade 3 (25 mg (N = 1)): 0 (0.0) n (%) | General disorders and administration site conditions, Any Grade (25 mg (N = 1)): 0 (0.0) n (%) | General disorders and administration site conditions, ≥ Grade 3 (25 mg (N = 1)): 0 (0.0) n (%) | Headache, Any Grade (25 mg (N = 1)): 0 (0.0) n (%) | Headache, ≥ Grade 3 (25 mg (N = 1)): 0 (0.0) n (%) | Hemoglobin decreased, Any Grade (25 mg (N = 1)): 0 (0.0) n (%) | Hemoglobin decreased, ≥ Grade 3 (25 mg (N = 1)): 0 (0.0) n (%) | Investigations, Any Grade (25 mg (N = 1)): 1 (100.0) n (%) | Investigations, ≥ Grade 3 (25 mg (N = 1)): 0 (0.0) n (%) | Lipase increased, Any Grade (25 mg (N = 1)): 0 (0.0) n (%) | Lipase increased, ≥ Grade 3 (25 mg (N = 1)): 0 (0.0) n (%) | Malaise, Any Grade (25 mg (N = 1)): 0 (0.0) n (%) | Malaise, ≥ Grade 3 (25 mg (N = 1)): 0 (0.0) n (%) | Metabolism and nutrition disorders, Any Grade (25 mg (N = 1)): 0 (0.0) n (%) | Metabolism and nutrition disorders, ≥ Grade 3 (25 mg (N = 1)): 0 (0.0) n (%) | Musculoskeletal and connective tissue disorders, Any Grade (25 mg (N = 1)): 0 (0.0) n (%) | Musculoskeletal and connective tissue disorders, ≥ Grade 3 (25 mg (N = 1)): 0 (0.0) n (%) | Nausea, Any Grade (25 mg (N = 1)): 0 (0.0) n (%) | Nausea, ≥ Grade 3 (25 mg (N = 1)): 0 (0.0) n (%) | Nervous system disorders, Any Grade (25 mg (N = 1)): 0 (0.0) n (%) | Nervous system disorders, ≥ Grade 3 (25 mg (N = 1)): 0 (0.0) n (%) | Participants with any TEAE, Any Grade (25 mg (N = 1)): 1 (100.0) n (%) | Participants with any TEAE, ≥ Grade 3 (25 mg (N = 1)): 0 (0.0) n (%) | Platelet count decreased, Any Grade (25 mg (N = 1)): 0 (0.0) n (%) | Platelet count decreased, ≥ Grade 3 (25 mg (N = 1)): 0 (0.0) n (%) | Proteinuria, Any Grade (25 mg (N = 1)): 0 (0.0) n (%) | Proteinuria, ≥ Grade 3 (25 mg (N = 1)): 0 (0.0) n (%) | Renal and urinary disorders, Any Grade (25 mg (N = 1)): 0 (0.0) n (%) | Renal and urinary disorders, ≥ Grade 3 (25 mg (N = 1)): 0 (0.0) n (%) | Subjects with any TEAE (25 mg (N = 1)): 1 (100.0) n (%) | Subjects with any drug-related TEAE (25 mg (N = 1)): 1 (100.0) n (%) | Vomiting, Any Grade (25 mg (N = 1)): 0 (0.0) n (%) | Vomiting, ≥ Grade 3 (25 mg (N = 1)): 0 (0.0) n (%) | White blood cell count decreased, Any Grade (25 mg (N = 1)): 0 (0.0) n (%) | White blood cell count decreased, ≥ Grade 3 (25 mg (N = 1)): 0 (0.0) n (%) | Alanine aminotransferase increased, Any Grade (50 mg (N = 4)): 1 (25.0) n (%) | Alanine aminotransferase increased, ≥ Grade 3 (50 mg (N = 4)): 0 (0.0) n (%) | Anemia, Any Grade (50 mg (N = 4)): 0 (0.0) n (%) | Anemia, ≥ Grade 3 (50 mg (N = 4)): 0 (0.0) n (%) | Any TEAE: Grade 3 (50 mg (N = 4)): 0 (0.0) n (%) | Any TEAE: Leading to death (50 mg (N = 4)): 0 (0.0) n (%) | Any TEAE: Leading to dose reduction (50 mg (N = 4)): 0 (0.0) n (%) | Any TEAE: Leading to treatment discontinuation (50 mg (N = 4)): 0 (0.0) n (%) | Any TEAE: Leading to treatment interruption (50 mg (N = 4)): 0 (0.0) n (%) | Any TEAE: SAE (50 mg (N = 4)): 0 (0.0) n (%) | Aspartate aminotransferase increased, Any Grade (50 mg (N = 4)): 1 (25.0) n (%) | Aspartate aminotransferase increased, ≥ Grade 3 (50 mg (N = 4)): 0 (0.0) n (%) | Blood and lymphatic system disorders, Any Grade (50 mg (N = 4)): 0 (0.0) n (%) | Blood and lymphatic system disorders, ≥ Grade 3 (50 mg (N = 4)): 0 (0.0) n (%) | Blood bilirubin increased, Any Grade (50 mg (N = 4)): 0 (0.0) n (%) | Blood bilirubin increased, ≥ Grade 3 (50 mg (N = 4)): 0 (0.0) n (%) | Cardiac disorders, Any Grade (50 mg (N = 4)): 0 (0.0) n (%) | Cardiac disorders, ≥ Grade 3 (50 mg (N = 4)): 0 (0.0) n (%) | Constipation, Any Grade (50 mg (N = 4)): 0 (0.0) n (%) | Constipation, ≥ Grade 3 (50 mg (N = 4)): 0 (0.0) n (%) | Decreased appetite, Any Grade (50 mg (N = 4)): 0 (0.0) n (%) | Decreased appetite, ≥ Grade 3 (50 mg (N = 4)): 0 (0.0) n (%) | Dizziness, Any Grade (50 mg (N = 4)): 0 (0.0) n (%) | Dizziness, ≥ Grade 3 (50 mg (N = 4)): 0 (0.0) n (%) | Drug-related TEAE: Grade 3 (50 mg (N = 4)): 0 (0.0) n (%) | Drug-related TEAE: Leading to death (50 mg (N = 4)): 0 (0.0) n (%) | Drug-related TEAE: Leading to dose reduction (50 mg (N = 4)): 0 (0.0) n (%) | Drug-related TEAE: Leading to treatment discontinuation (50 mg (N = 4)): 0 (0.0) n (%) | Drug-related TEAE: Leading to treatment interruption (50 mg (N = 4)): 0 (0.0) n (%) | Drug-related TEAE: SAE (50 mg (N = 4)): 0 (0.0) n (%) | Fatigue, Any Grade (50 mg (N = 4)): 0 (0.0) n (%) | Fatigue, ≥ Grade 3 (50 mg (N = 4)): 0 (0.0) n (%) | Gastrointestinal disorders, Any Grade (50 mg (N = 4)): 0 (0.0) n (%) | Gastrointestinal disorders, ≥ Grade 3 (50 mg (N = 4)): 0 (0.0) n (%) | General disorders and administration site conditions, Any Grade (50 mg (N = 4)): 0 (0.0) n (%) | General disorders and administration site conditions, ≥ Grade 3 (50 mg (N = 4)): 0 (0.0) n (%) | Headache, Any Grade (50 mg (N = 4)): 1 (25.0) n (%) | Headache, ≥ Grade 3 (50 mg (N = 4)): 0 (0.0) n (%) | Hemoglobin decreased, Any Grade (50 mg (N = 4)): 2 (50.0) n (%) | Hemoglobin decreased, ≥ Grade 3 (50 mg (N = 4)): 0 (0.0) n (%) | Investigations, Any Grade (50 mg (N = 4)): 3 (75.0) n (%) | Investigations, ≥ Grade 3 (50 mg (N = 4)): 0 (0.0) n (%) | Lipase increased, Any Grade (50 mg (N = 4)): 2 (50.0) n (%) | Lipase increased, ≥ Grade 3 (50 mg (N = 4)): 0 (0.0) n (%) | Malaise, Any Grade (50 mg (N = 4)): 0 (0.0) n (%) | Malaise, ≥ Grade 3 (50 mg (N = 4)): 0 (0.0) n (%) | Metabolism and nutrition disorders, Any Grade (50 mg (N = 4)): 1 (25.0) n (%) | Metabolism and nutrition disorders, ≥ Grade 3 (50 mg (N = 4)): 0 (0.0) n (%) | Musculoskeletal and connective tissue disorders, Any Grade (50 mg (N = 4)): 1 (25.0) n (%) | Musculoskeletal and connective tissue disorders, ≥ Grade 3 (50 mg (N = 4)): 0 (0.0) n (%) | Nausea, Any Grade (50 mg (N = 4)): 0 (0.0) n (%) | Nausea, ≥ Grade 3 (50 mg (N = 4)): 0 (0.0) n (%)

From article PMC10327353 (Breast Cancer Research : BCR, 2023)
